Measured values reported in the NIST ThermoML archive (doi:10.1021/je1007197).
Numbers after ± are expanded uncertainties.

Assay: xn = mol fraction of the nth substance listed
Settings: Liquid, Hot wire method

CCCCOCCO [2-butoxyethan-1-ol] + O
Settings	thermal conductivity [W/m/K]
304.15 K, 100 kPa, x1 = 0.0478	0.4533 ± 0.0027
304.15 K, 100 kPa, x1 = 0.1732	0.2813 ± 0.0017
304.15 K, 100 kPa, x1 = 0.5	0.1837 ± 0.0011
304.15 K, 100 kPa, x1 = 0.75	0.1655 ± 0.001
304.15 K, 10300 kPa, x1 = 0.5	0.1877 ± 0.0012
304.15 K, 10300 kPa, x1 = 0.75	0.169 ± 0.0011
304.15 K, 14200 kPa, x1 = 0.0478	0.4568 ± 0.0027
304.15 K, 15000 kPa, x1 = 0.5	0.189 ± 0.0012
304.15 K, 19300 kPa, x1 = 0.75	0.1717 ± 0.0011
304.15 K, 20300 kPa, x1 = 0.1732	0.2857 ± 0.0018
304.15 K, 26700 kPa, x1 = 0.5	0.1936 ± 0.0012
304.15 K, 27300 kPa, x1 = 0.0478	0.4622 ± 0.0027
304.15 K, 30000 kPa, x1 = 0.1732	0.2896 ± 0.0018
304.15 K, 39500 kPa, x1 = 0.75	0.1771 ± 0.0011
304.15 K, 41800 kPa, x1 = 0.0478	0.468 ± 0.0028
304.15 K, 41800 kPa, x1 = 0.5	0.1963 ± 0.0012
304.15 K, 47200 kPa, x1 = 0.1732	0.2942 ± 0.0019
304.15 K, 54700 kPa, x1 = 0.5	0.1995 ± 0.0012
304.15 K, 54700 kPa, x1 = 0.75	0.1812 ± 0.0011
304.15 K, 55400 kPa, x1 = 0.0478	0.4704 ± 0.0028
304.15 K, 70100 kPa, x1 = 0.0478	0.4758 ± 0.0028
304.15 K, 70200 kPa, x1 = 0.1732	0.3008 ± 0.0019
304.15 K, 70200 kPa, x1 = 0.5	0.2032 ± 0.0012
304.15 K, 76500 kPa, x1 = 0.75	0.1862 ± 0.0012
304.15 K, 83900 kPa, x1 = 0.0478	0.478 ± 0.0028
304.15 K, 84200 kPa, x1 = 0.1732	0.3043 ± 0.0019
304.15 K, 84200 kPa, x1 = 0.5	0.2066 ± 0.0013
304.15 K, 91200 kPa, x1 = 0.75	0.19 ± 0.0012
304.15 K, 98200 kPa, x1 = 0.0478	0.4845 ± 0.0029
304.15 K, 98200 kPa, x1 = 0.1732	0.3077 ± 0.0019
304.15 K, 98200 kPa, x1 = 0.75	0.1901 ± 0.0012
304.15 K, 108700 kPa, x1 = 0.5	0.2127 ± 0.0013
304.15 K, 110400 kPa, x1 = 0.1732	0.311 ± 0.002
304.15 K, 112100 kPa, x1 = 0.0478	0.4875 ± 0.0029
304.15 K, 112200 kPa, x1 = 0.75	0.1951 ± 0.0012
304.15 K, 124800 kPa, x1 = 0.5	0.2157 ± 0.0013
304.15 K, 126000 kPa, x1 = 0.0478	0.4917 ± 0.0029
304.15 K, 126200 kPa, x1 = 0.1732	0.3147 ± 0.002
304.15 K, 127600 kPa, x1 = 0.75	0.1976 ± 0.0012
304.15 K, 138700 kPa, x1 = 0.0478	0.4958 ± 0.0029
304.15 K, 140100 kPa, x1 = 0.1732	0.3175 ± 0.002
304.15 K, 140100 kPa, x1 = 0.5	0.2189 ± 0.0014
304.15 K, 140100 kPa, x1 = 0.75	0.2005 ± 0.0012
304.15 K, 150600 kPa, x1 = 0.1732	0.3195 ± 0.0022
304.15 K, 150600 kPa, x1 = 0.75	0.2022 ± 0.0012
317.15 K, 100 kPa, x1 = 0.0478	0.4606 ± 0.0027
317.15 K, 16400 kPa, x1 = 0.0478	0.4669 ± 0.0028
317.15 K, 25500 kPa, x1 = 0.0478	0.4697 ± 0.0028
317.15 K, 41800 kPa, x1 = 0.0478	0.475 ± 0.0028
317.15 K, 56100 kPa, x1 = 0.0478	0.4789 ± 0.0028
317.15 K, 70600 kPa, x1 = 0.0478	0.485 ± 0.0029
317.15 K, 84200 kPa, x1 = 0.0478	0.4875 ± 0.0029
317.15 K, 98200 kPa, x1 = 0.0478	0.4926 ± 0.0029
317.15 K, 112200 kPa, x1 = 0.0478	0.4983 ± 0.0029
317.15 K, 124000 kPa, x1 = 0.0478	0.5008 ± 0.003
317.15 K, 141000 kPa, x1 = 0.0478	0.5066 ± 0.003
320.9 K, 100 kPa, x1 = 0.0478	0.4774 ± 0.0029
320.9 K, 2300 kPa, x1 = 0.0478	0.4714 ± 0.0029
320.9 K, 5000 kPa, x1 = 0.0478	0.4639 ± 0.0034
320.9 K, 7500 kPa, x1 = 0.0478	0.4677 ± 0.0035
320.9 K, 10000 kPa, x1 = 0.0478	0.4694 ± 0.0028
320.9 K, 12500 kPa, x1 = 0.0478	0.4703 ± 0.0028
320.9 K, 15000 kPa, x1 = 0.0478	0.4705 ± 0.0028
320.9 K, 19500 kPa, x1 = 0.0478	0.4737 ± 0.0033
320.9 K, 20000 kPa, x1 = 0.0478	0.4742 ± 0.0033
320.9 K, 29800 kPa, x1 = 0.0478	0.4774 ± 0.0028
320.9 K, 52500 kPa, x1 = 0.0478	0.4855 ± 0.0035
320.9 K, 70200 kPa, x1 = 0.0478	0.4855 ± 0.0029
320.9 K, 87700 kPa, x1 = 0.0478	0.4986 ± 0.0038
320.9 K, 105200 kPa, x1 = 0.0478	0.5044 ± 0.0037
320.9 K, 126200 kPa, x1 = 0.0478	0.5123 ± 0.003
321.15 K, 100 kPa, x1 = 0.5	0.1829 ± 0.0011
321.15 K, 100 kPa, x1 = 0.75	0.1624 ± 0.001
321.15 K, 10000 kPa, x1 = 0.5	0.1864 ± 0.0012
321.15 K, 10000 kPa, x1 = 0.75	0.1656 ± 0.001
321.15 K, 19300 kPa, x1 = 0.5	0.1892 ± 0.0012
321.15 K, 19300 kPa, x1 = 0.75	0.1693 ± 0.0011
321.15 K, 19700 kPa, x1 = 0.5	0.1896 ± 0.0013
321.15 K, 28300 kPa, x1 = 0.75	0.1718 ± 0.0011
321.15 K, 39300 kPa, x1 = 0.75	0.1744 ± 0.0011
321.15 K, 41800 kPa, x1 = 0.5	0.1959 ± 0.0012
321.15 K, 56100 kPa, x1 = 0.5	0.2001 ± 0.0012
321.15 K, 56100 kPa, x1 = 0.75	0.1792 ± 0.0011
321.15 K, 70200 kPa, x1 = 0.5	0.2034 ± 0.0013
321.15 K, 71600 kPa, x1 = 0.75	0.1836 ± 0.0011
321.15 K, 84200 kPa, x1 = 0.5	0.2073 ± 0.0013
321.15 K, 84200 kPa, x1 = 0.75	0.1871 ± 0.0012
321.15 K, 96500 kPa, x1 = 0.5	0.2099 ± 0.0013
321.15 K, 98900 kPa, x1 = 0.75	0.1907 ± 0.0012
321.15 K, 111500 kPa, x1 = 0.75	0.1929 ± 0.0012
321.15 K, 112200 kPa, x1 = 0.5	0.2144 ± 0.0013
321.15 K, 124800 kPa, x1 = 0.75	0.1959 ± 0.0012
321.15 K, 126900 kPa, x1 = 0.5	0.2172 ± 0.0013
321.15 K, 141500 kPa, x1 = 0.5	0.2201 ± 0.0013
321.15 K, 142200 kPa, x1 = 0.75	0.1998 ± 0.0012
321.15 K, 149900 kPa, x1 = 0.5	0.2213 ± 0.0014
321.15 K, 150600 kPa, x1 = 0.75	0.2016 ± 0.0012
322 K, 100 kPa, x1 = 0.0478	0.4932 ± 0.0032
322 K, 5400 kPa, x1 = 0.0478	0.4886 ± 0.0038
322 K, 20000 kPa, x1 = 0.0478	0.4931 ± 0.0034
322 K, 34600 kPa, x1 = 0.0478	0.5006 ± 0.003
322 K, 52500 kPa, x1 = 0.0478	0.5069 ± 0.0036
322 K, 70200 kPa, x1 = 0.0478	0.5149 ± 0.004
322 K, 87700 kPa, x1 = 0.0478	0.5221 ± 0.0037
322 K, 105200 kPa, x1 = 0.0478	0.528 ± 0.0038
322 K, 119200 kPa, x1 = 0.0478	0.5322 ± 0.0032
322 K, 133200 kPa, x1 = 0.0478	0.5354 ± 0.0032
335 K, 100 kPa, x1 = 0.1732	0.2804 ± 0.0017
335 K, 10000 kPa, x1 = 0.1732	0.2851 ± 0.0017
335 K, 19000 kPa, x1 = 0.1732	0.2895 ± 0.0017
335 K, 41800 kPa, x1 = 0.1732	0.2972 ± 0.0018
335 K, 70200 kPa, x1 = 0.1732	0.306 ± 0.0018
335 K, 84200 kPa, x1 = 0.1732	0.3077 ± 0.0018
335 K, 98200 kPa, x1 = 0.1732	0.3111 ± 0.0019
335 K, 112200 kPa, x1 = 0.1732	0.3153 ± 0.0019
335 K, 125500 kPa, x1 = 0.1732	0.3205 ± 0.0019
335 K, 137300 kPa, x1 = 0.1732	0.3218 ± 0.0019
338.15 K, 100 kPa, x1 = 0.5	0.1796 ± 0.0011
338.15 K, 100 kPa, x1 = 0.75	0.1594 ± 0.001
338.15 K, 10400 kPa, x1 = 0.5	0.1841 ± 0.0011
338.15 K, 11000 kPa, x1 = 0.75	0.1637 ± 0.001
338.15 K, 19000 kPa, x1 = 0.5	0.1866 ± 0.0012
338.15 K, 19500 kPa, x1 = 0.5	0.1867 ± 0.0012
338.15 K, 19500 kPa, x1 = 0.75	0.1663 ± 0.001
338.15 K, 30700 kPa, x1 = 0.75	0.1702 ± 0.0011
338.15 K, 39300 kPa, x1 = 0.75	0.1723 ± 0.0011
338.15 K, 41800 kPa, x1 = 0.5	0.1936 ± 0.0012
338.15 K, 56100 kPa, x1 = 0.5	0.1986 ± 0.0012
338.15 K, 56100 kPa, x1 = 0.75	0.1767 ± 0.0011
338.15 K, 70200 kPa, x1 = 0.5	0.2018 ± 0.0012
338.15 K, 70200 kPa, x1 = 0.75	0.1812 ± 0.0011
338.15 K, 80700 kPa, x1 = 0.5	0.2039 ± 0.0013
338.15 K, 91200 kPa, x1 = 0.75	0.1868 ± 0.0012
338.15 K, 98200 kPa, x1 = 0.5	0.2083 ± 0.0013
338.15 K, 105200 kPa, x1 = 0.75	0.1907 ± 0.0012
338.15 K, 112200 kPa, x1 = 0.5	0.2118 ± 0.0013
338.15 K, 117800 kPa, x1 = 0.75	0.1924 ± 0.0012
338.15 K, 126200 kPa, x1 = 0.5	0.2146 ± 0.0013
338.15 K, 131800 kPa, x1 = 0.75	0.1964 ± 0.0012
338.15 K, 140800 kPa, x1 = 0.5	0.2183 ± 0.0014
338.15 K, 147100 kPa, x1 = 0.75	0.1997 ± 0.0012
346.5 K, 100 kPa, x1 = 0.1732	0.2659 ± 0.0016
346.5 K, 10000 kPa, x1 = 0.1732	0.2753 ± 0.0017
346.5 K, 20000 kPa, x1 = 0.1732	0.2796 ± 0.0017
346.5 K, 29500 kPa, x1 = 0.1732	0.2834 ± 0.0017
346.5 K, 49000 kPa, x1 = 0.1732	0.2904 ± 0.0017
346.5 K, 84200 kPa, x1 = 0.1732	0.3009 ± 0.0018
346.5 K, 98200 kPa, x1 = 0.1732	0.3029 ± 0.0018
346.5 K, 112200 kPa, x1 = 0.1732	0.3046 ± 0.0018
346.5 K, 122700 kPa, x1 = 0.1732	0.31 ± 0.0019
346.5 K, 140100 kPa, x1 = 0.1732	0.3122 ± 0.0019
346.5 K, 148500 kPa, x1 = 0.1732	0.3128 ± 0.0019
